Consider 38 compounds from patent US20170001988A1, “PIPERIDINE AND PIPERAZINE DERIVATIVES AND THEIR USE IN TREATING VIRAL INFECTIONS AND CANCER” (THE UNITED STATES OF AMERICA, AS REPRESENTED BY THE …, priority 2013, published 2017).

For orientation: EC50 means the concentration at which the effect is half-maximal.

Read-outs that look alike come from different tables or passages of the source. A value given as a limit tells only on which side of the number the result lay.

Data set [1] is described as follows: ATPLite cytotoxicity assay. Particulars: human. From the text: (§1) EC50 was generated using the HCV-Luc infection assay and IC50 using the ATPLite assay.
(§2) EC50 was generated using the HCV-Luc infection assay and TC50 using the ATPLite assay.
(§3) The cytotoxicity of the compounds was further evaluated in HepG2 cells and primary human hepatocytes.

The subject of another data set is HCV-Luc. Kind of data set: HCV-Luc infection assay. Particulars: for EC50: Hepatitis C virus. In kind it is cell-based.
A further data set concerns Huh7.5.1 cells. Kind of data set: in vitro. Particulars: human.
Text: as §1, §2, §3

Take `OCCOCCN1CCN(C(c2ccccc2)c2ccc(Cl)cc2)CC1` (racemic) [CH2CH2OCH2CH2OH (R,S), 2-(2-(4-((4-Chlorophenyl)(phenyl)methyl)piperazin-1-yl)ethoxy)ethanol]: the CC50 in data set [1] (Huh7.5.1 cells) amounted to 42.6 ± 1.8 µM. Further, in the data set with HCV-Luc, the “Selective Index” value is on record as 1331. Moreover, in the data set on HCV-Luc (Table 3, read-out: EC50), the EC50 amounted to 0.032 ± 0.011 µM.

`COc1ccccc1CN1CCC(N(CCc2ccccc2)Cc2ccccc2)CC1` [2-Methoxybenzyl, N-Benzyl-1-(2-methoxybenzyl)-N-phenethylpiperidin-4-amine]: in data set [1], the CC50 is 15.2 µM. The response with HCV-Luc was half-maximal at 0.64 µM (EC50).

`c1ccc(CCN2CCC(N(CCc3ccccc3)Cc3ccccc3)CC2)cc1` [2-Phenylethyl, N-Benzyl-N,1-diphenethylpiperidin-4-amine] showed a CC50 in data set [1] of more than 100 µM. Further, the EC50 in the data set with HCV-Luc (Table 6, read-out: EC50) worked out at 16.2 µM.

In the case of `COc1cccc(CN2CCC(N(CCc3ccccc3)Cc3ccccc3)CC2)c1` [3-Methoxybenzyl, N-Benzyl-1-(3-methoxybenzyl)-N-phenethylpiperidin-4-amine], the CC50 in data set [1] worked out at 45.2 µM. Moreover, in the data set with HCV-Luc (Table 6, read-out: EC50), the EC50 amounted to 1.57 µM.

In data set [1], `Brc1ccc(CN2CCC(N(CCc3ccccc3)Cc3ccccc3)CC2)cc1` [4-Bromobenzyl, N-Benzyl-1-(4-bromobenzyl)-N-phenethylpiperidin-4-amine] registered a CC50 of more than 100 µM. Further, in the data set on HCV-Luc (Table 6, read-out: EC50), the EC50 was 4.33 µM.

On to `Clc1ccc(CN2CCC(N(CCc3ccccc3)Cc3ccccc3)CC2)cc1` [4-Chlorobenzyl, N-Benzyl-1-(4-chlorobenzyl)-N-phenethylpiperidin-4-amine], for which the CC50 in data set [1] was more than 100 µM. Besides, the EC50 with HCV-Luc (Table 6, read-out: EC50) was 9.24 µM.

Turning to `N#Cc1ccc(CN2CCC(N(CCc3ccccc3)Cc3ccccc3)CC2)cc1` [4-Cyanobenzyl, 4-((4-(Benzyl(phenethyl)amino)piperidin-1-yl)methyl)benzonitrile], the CC50 in data set [1] came to 100 µM. Moreover, in the data set on HCV-Luc (Table 6, read-out: EC50), the EC50 amounted to 5.86 µM.

Regarding `Fc1ccc(CN2CCC(N(CCc3ccccc3)Cc3ccccc3)CC2)cc1` [4-Fluorobenzyl, N-Benzyl-1-(4-fluorobenzyl)-N-phenethylpiperidin-4-amine], in data set [1], the CC50 stood at 56.3 µM. Moreover, in the data set with HCV-Luc, the midpoint of the response, the EC50, lay at 9.6 µM.

In data set [1], `COc1ccc(CN2CCC(N(CCc3ccccc3)Cc3ccccc3)CC2)cc1` [4-Methoxybenzyl, N-Benzyl-1-(4-methoxybenzyl)-N-phenethylpiperidin-4-amine] returned a CC50 of 27.8 µM. For the same compound, the EC50 in the data set on HCV-Luc came out at 4.35 µM.

Compound `COC(=O)c1ccc(CN2CCC(N(CCc3ccccc3)Cc3ccccc3)CC2)cc1` [4-Methoxycarbonylbenzyl, Methyl 4-((4-(benzyl(phenethyl)amino)piperidin-1-yl)methyl)benzoate] had a CC50 in data set [1] of more than 100 µM. Also, in the data set with HCV-Luc (Table 6, read-out: EC50), the EC50 is 14 µM.

In data set [1], `Cc1ccc(CN2CCC(N(CCc3ccccc3)Cc3ccccc3)CC2)cc1` [4-Methylbenzyl, N-Benzyl-1-(4-methylbenzyl)-N-phenethylpiperidin-4-amine] displayed a CC50 of 40.3 µM. Further, the EC50 in the data set on HCV-Luc (Table 6, read-out: EC50) was 0.74 µM.

The compound `c1ccc(CCN(Cc2ccccc2)C2CCN(Cc3ccc(-c4ccccc4)cc3)CC2)cc1` [4-Phenylbenzyl, 1-([1,1′-Biphenyl]-4-ylmethyl)-N-benzyl-N-phenethylpiperidin-4-amine] showed a CC50 in data set [1] of more than 100 µM. In addition, in the data set with HCV-Luc (Table 6, read-out: EC50), the EC50 was determined as 12.2 µM.

As to `FC(F)(F)c1ccc(CN2CCC(N(CCc3ccccc3)Cc3ccccc3)CC2)cc1` [4-Trifluoromethylbenzyl, N-Benzyl-N-phenethyl-1-(4-(trifluoromethyl)benzyl)piperidin-4-amine], the CC50 in data set [1] is more than 100 µM. Also, the EC50 in the data set with HCV-Luc (Table 6, read-out: EC50) is more than 10 µM.

In turn, `CC(=O)N1CCC(N(CCc2ccccc2)Cc2ccccc2)CC1` [Acetyl, 1-(4-(Benzyl(phenethyl)amino)piperidin-1-yl)ethanone] gave a CC50 in data set [1] of 74.5 µM. In addition, the EC50 in the data set with HCV-Luc (Table 6, read-out: EC50) was more than 31.6 µM.

The compound `O=C(c1ccccc1)N1CCC(N(CCc2ccccc2)Cc2ccccc2)CC1` [Benzoyl, (4-(Benzyl(phenethyl)amino)piperidin-1-yl)(phenyl)methanone] showed a CC50 in data set [1] of 94 µM. In addition, the EC50 with HCV-Luc (Table 6, read-out: EC50) came out at 24.8 µM.

With `c1ccc(CCN(Cc2ccccc2)C2CCN(Cc3ccccc3)CC2)cc1` [Benzyl, N,1-dibenzyl-N-phenethylpiperidin-4-amine], the CC50 in data set [1] stood at 30.9 µM. In addition, the EC50 in the data set on HCV-Luc (Table 6, read-out: EC50) was 0.32 µM.

As for `CCCCN1CCC(N(CCc2ccccc2)Cc2ccccc2)CC1` [Butyl, N-Benzyl-1-butyl-N-phenethylpiperidin-4-amine], the CC50 in data set [1] was determined as 17.9 µM. For the same compound, the EC50 with HCV-Luc (Table 6, read-out: EC50) is 1.55 µM.

For `[2H]C([2H])([2H])CN1CCC(N(CCc2ccccc2)Cc2ccccc2)CC1` [CD3CH2—, N-Benzyl-1-ethyl(2,2,2-d3)-N-phenethylpiperidin-4-amine], the CC50 in data set [1] turned out to be 50.8 µM. For the same compound, the EC50 in the data set on HCV-Luc (Table 6, read-out: EC50) amounted to 2.37 µM.

Turning to `[2H]C([2H])([2H])N1CCC(N(CCc2ccccc2)Cc2ccccc2)CC1` [CD3—, N-Benzyl-1-methyl(d3)-N-phenethylpiperidin-4-amine], the CC50 in data set [1] was found to be 100 µM. Moreover, in the data set with HCV-Luc (Table 6, read-out: EC50), the EC50 was 7.95 µM.

In turn, `FC(F)(F)CN1CCC(N(CCc2ccccc2)Cc2ccccc2)CC1` [CF3CH2—, N-Benzyl-N-phenethyl-1-(2,2,2-trifluoroethyl)piperidin-4-amine] had a CC50 in data set [1] of more than 100 µM. Besides, in the data set on HCV-Luc (Table 6, read-out: EC50), the EC50 is more than 31.6 µM.

In data set [1], `Ic1ccc(CN2CCC(N(CCc3ccccc3)Cc3ccccc3)CC2)cc1` [Compound 4-Iodobenzyl, N-Benzyl-1-(4-iodobenzyl)-N-phenethylpiperidin-4-amine] came in with a CC50 of more than 100 µM. Moreover, the EC50 in the data set with HCV-Luc (Table 6, read-out: EC50) was 2.98 µM.

The compound `c1ccc(CCN(Cc2ccccc2)C2CCN(C3CCCCC3)CC2)cc1` [Cyclohexyl, N-Benzyl-1-cyclohexyl-N-phenethylpiperidin-4-amine] yielded a CC50 in data set [1] of 33.8 µM. Also, in the data set with HCV-Luc (Table 6, read-out: EC50), the EC50 was 1.5 µM.

Turning to `Clc1ccc([C@H](c2ccccc2)N2CCN(C3CCCC3)CC2)cc1` [Cyclopentyl (S), (S)-1-((4-Chlorophenyl)(phenyl)methyl)-4-cyclopentylpiperazine], the CC50 in the data set on Huh7.5.1 cells worked out at 30.4 ± 2.8 µM. Further, the EC50 with HCV-Luc (Table 3, read-out: EC50) was 0.019 ± 0.006 µM. For the same compound, in the data set on HCV-Luc (Table 3), the “Selective Index” value amounted to 1600.

`c1ccc(CCN(Cc2ccccc2)C2CCN(C3CCCC3)CC2)cc1` [Cyclopentyl, N-Benzyl-1-cyclopentyl-N-phenethylpiperidin-4-amine] had a CC50 in data set [1] of 15 µM. The EC50 in the data set on HCV-Luc (Table 6, read-out: EC50) is 0.48 µM.

As for `CCN1CCC(N(CCc2ccccc2)Cc2ccccc2)CC1` [Et, N-Benzyl-1-ethyl-N-phenethylpiperidin-4-amine], the CC50 in data set [1] is 35.3 µM. For the same compound, the EC50 in the data set on HCV-Luc (Table 6, read-out: EC50) was 0.039 µM.

In turn, `Clc1ccc([C@@H](c2ccccc2)N2CCNCC2)cc1` [H (R), (R)-1-((4-Chlorophenyl)(phenyl)methyl)piperazine] showed a CC50 in the data set with Huh7.5.1 cells of 12.5 ± 1.4 µM. The EC50 in the data set with HCV-Luc (Table 3, read-out: EC50) was 0.032 ± 0.022 µM. The “Selective Index” value with HCV-Luc (Table 3) came to 391.

In the data set with Huh7.5.1 cells, `Clc1ccc([C@H](c2ccccc2)N2CCNCC2)cc1` [H (S), (S)-1-((4-Chlorophenyl)(phenyl)methyl)piperazine] returned a CC50 of 9.31 ± 0.04 µM. The EC50 with HCV-Luc (Table 3, read-out: EC50) was found to be 0.034 ± 0.012 µM. Besides, the “Selective Index” value in the data set with HCV-Luc (Table 3) is listed as 0274.

Turning to `c1ccc(CCN(Cc2ccccc2)C2CCNCC2)cc1` [H, N-Benzyl-N-phenethylpiperidin-4-amine], the CC50 in data set [1] came out at 23.5 µM. Moreover, in the data set with HCV-Luc (Table 6, read-out: EC50), the EC50 worked out at 0.12 µM.

`CC(C)CN1CCC(N(CCc2ccccc2)Cc2ccccc2)CC1` [Isobutyl, N-Benzyl-1-isobutyl-N-phenethylpiperidin-4-amine] showed a CC50 in data set [1] of 37.6 µM. Besides, the EC50 with HCV-Luc (Table 6, read-out: EC50) came out at 4.76 µM.

In turn, `CC(C)N1CCC(N(CCc2ccccc2)Cc2ccccc2)CC1` [Isopropyl, N-Benzyl-1-isopropyl-N-phenethylpiperidin-4-amine] displayed a CC50 in data set [1] of 37.6 µM. For the same compound, the EC50 in the data set with HCV-Luc (Table 6, read-out: EC50) was determined as 0.94 µM.

In data set [1], `CN1CCC(N(CCc2ccccc2)Cc2ccccc2)CC1` [Me, N-Benzyl-1-methyl-N-phenethylpiperidin-4-amine] registered a CC50 of 41.1 µM. The EC50 in the data set on HCV-Luc (Table 6, read-out: EC50) was 0.92 µM.

Turning to `c1ccc(CCN(Cc2ccccc2)C2CCN(Cc3ccc4c(c3)OCCO4)CC2)cc1` [N-Benzyl-1-((2,3-dihydrobenzo[b][1,4]dioxin-6-yl)methyl)-N-phenethylpiperidin-4-amine], the CC50 in data set [1] stood at 36.6 µM. In addition, the EC50 in the data set with HCV-Luc (Table 6, read-out: EC50) came to 2.78 µM.

Consider `c1ccc(CCN(Cc2ccccc2)C2CCN(c3ccccc3)CC2)cc1` [Phenyl, N-Benzyl-N-phenethyl-1-phenylpiperidin-4-amine], for which, in data set [1], the CC50 is more than 100 µM. This compound yielded an EC50 in the data set with HCV-Luc of more than 31.6 µM.

In the data set on Huh7.5.1 cells, `CC(C)N1CCN([C@@H](c2ccccc2)c2ccc(Cl)cc2)CC1` [i-Pr (S), (S)-1-((4-Chlorophenyl)(phenyl)methyl)-4-isopropylpiperazine] registered a CC50 of 32.4 ± 3.8 µM. Besides, the half-maximal effective concentration (EC50) with HCV-Luc (Table 3, read-out: EC50) came out at 0.013 ± 0.004 µM. Besides, the “Selective Index” value with HCV-Luc (Table 3) is 2492.

With `CCCCN1CCN([C@H](c2ccccc2)c2ccc(Cl)cc2)CC1` [n-Bu (R), (R)-1-Butyl-4-((4-chlorophenyl)(phenyl)methyl)piperazine], in the data set with Huh7.5.1 cells, the CC50 was determined as 40.8 ± 0.4 µM. Further, the EC50 in the data set on HCV-Luc (Table 3, read-out: EC50) turned out to be 0.195 ± 0.084 µM. In addition, in the data set with HCV-Luc (Table 3), the “Selective Index” value amounted to 309.

The compound `CCCCN1CCN([C@@H](c2ccccc2)c2ccc(Cl)cc2)CC1` [n-Bu (S), (S)-1-Butyl-4-((4-chlorophenyl)(phenyl)methyl)piperazine] yielded a CC50 in the data set with Huh7.5.1 cells of 31.1 ± 4.2 µM. Moreover, the EC50 in the data set with HCV-Luc (Table 3, read-out: EC50) was 0.042 ± 0.023 µM. Further, in the data set on HCV-Luc (Table 3), the “Selective Index” value is recorded as 740.

Turning to `CCCN1CCN([C@H](c2ccccc2)c2ccc(Cl)cc2)CC1` [n-Pr (R), (R)-1-((4-Chlorophenyl)(phenyl)methyl)-4-propylpiperazine], the CC50 with Huh7.5.1 cells is 48.5 ± 1.1 µM. Besides, the EC50 in the data set on HCV-Luc (Table 3, read-out: EC50) amounted to 0.024 ± 0.005 µM. Further, the “Selective Index” value in the data set on HCV-Luc (Table 3) worked out at 2021.

The compound `CCCN1CCN([C@@H](c2ccccc2)c2ccc(Cl)cc2)CC1` [n-Pr (S), (S)-1-((4-Chlorophenyl)(phenyl)methyl)-4-propylpiperazine] registered a CC50 in the data set with Huh7.5.1 cells of 39.7 ± 0.9 µM. The EC50 in the data set on HCV-Luc (Table 3, read-out: EC50) amounted to 0.032 ± 0.018 µM. Also, the “Selective Index” value in the data set with HCV-Luc (Table 3) was found to be 1241.
